Where a name gives a salt, the structure may show the parent alone.
How the values were obtained:
[1] = molecular target: T1, α4β1 integrin (Jurkat cell adhesion to immobilized CS-1 derived peptide CLHPGEILDVPST) (Homo sapiens, UniProt P05556+P13612); assay: Jurkat-CS-1 assay; type: cell-based; settings: Jurkat cells on CS-1 peptide coated plates; read-out: JK/CS-1 (Jurkat CS-1 Assay IC50 value range)
T1 construct: 100 μl of Jurkat cells (2.5×10^6 cells/ml) in DMEM plus BSA; host or cells: Jurkat T-cell line
Outline: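 CS-1 peptide was SPDP-crosslinked onto HSA-coated plates and blocked with BSA. Jurkat cells (2.5×10^6 cells/ml) in DMEM/BSA were mixed with compound, generally at 100, 20, 5 and 1.25 μM, and allowed to adhere for 1 hr at 37° C. Bound cells were fixed, stained with toluidine blue and quantified by OD590.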

[2] = molecular target: T2, α4β1 integrin (Jurkat T-cell adhesion to IL-1 stimulated endothelial cell monolayers) (Homo sapiens, UniProt P05556+P13612); assay: Jurkat-endothelial cell adhesion assay (Jurkat EC); type: cell-based; settings: Jurkat cells on IL-1 stimulated human umbilical vein endothelial cells; read-out: JK/EC (Jurkat EC Assay IC50 value range)
T2 construct: a T-cell line, Jurkat, known to express the α4β1 integrin; host or cells: Jurkat T-cell line
Outline: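 BCECF-AM-labelled Jurkat cells were mixed with compound, generally 100, 20, 5 and 1.25 μM, and added to HUVEC monolayers (passage ≤6) pre-stimulated 4 hr at 37° C with 0.1 ng/ml IL-1. After 5 min on ice and 20 min at 37° C, washed wells were read by fluorescence as % adhesion relative to no compound.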

T2 sequence (P13612 34-1032): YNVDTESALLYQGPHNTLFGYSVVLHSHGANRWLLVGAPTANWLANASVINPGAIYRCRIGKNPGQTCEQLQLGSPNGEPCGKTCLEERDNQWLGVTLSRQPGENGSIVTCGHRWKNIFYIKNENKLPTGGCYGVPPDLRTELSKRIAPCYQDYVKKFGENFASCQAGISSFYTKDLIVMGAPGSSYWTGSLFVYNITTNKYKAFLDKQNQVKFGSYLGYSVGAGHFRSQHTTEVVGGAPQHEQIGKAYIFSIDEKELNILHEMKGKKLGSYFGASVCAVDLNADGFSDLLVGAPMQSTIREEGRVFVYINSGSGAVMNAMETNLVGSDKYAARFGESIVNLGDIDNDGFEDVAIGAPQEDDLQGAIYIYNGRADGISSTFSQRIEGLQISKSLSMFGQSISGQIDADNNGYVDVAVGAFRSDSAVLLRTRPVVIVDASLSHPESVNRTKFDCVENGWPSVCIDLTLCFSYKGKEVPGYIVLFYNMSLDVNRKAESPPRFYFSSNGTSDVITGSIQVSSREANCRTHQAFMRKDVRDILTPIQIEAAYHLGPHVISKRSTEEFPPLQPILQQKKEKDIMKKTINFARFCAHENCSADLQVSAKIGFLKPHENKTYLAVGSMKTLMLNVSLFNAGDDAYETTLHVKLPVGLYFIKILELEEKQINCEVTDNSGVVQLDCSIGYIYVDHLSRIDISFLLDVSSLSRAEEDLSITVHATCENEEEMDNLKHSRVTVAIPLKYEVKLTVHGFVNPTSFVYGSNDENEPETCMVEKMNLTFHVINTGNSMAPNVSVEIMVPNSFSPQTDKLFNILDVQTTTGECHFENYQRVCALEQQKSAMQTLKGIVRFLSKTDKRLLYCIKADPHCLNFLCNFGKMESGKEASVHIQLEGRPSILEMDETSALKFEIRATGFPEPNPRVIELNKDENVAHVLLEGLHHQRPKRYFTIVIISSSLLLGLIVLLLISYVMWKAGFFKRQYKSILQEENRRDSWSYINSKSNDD
T2 sequence (P05556 21-798): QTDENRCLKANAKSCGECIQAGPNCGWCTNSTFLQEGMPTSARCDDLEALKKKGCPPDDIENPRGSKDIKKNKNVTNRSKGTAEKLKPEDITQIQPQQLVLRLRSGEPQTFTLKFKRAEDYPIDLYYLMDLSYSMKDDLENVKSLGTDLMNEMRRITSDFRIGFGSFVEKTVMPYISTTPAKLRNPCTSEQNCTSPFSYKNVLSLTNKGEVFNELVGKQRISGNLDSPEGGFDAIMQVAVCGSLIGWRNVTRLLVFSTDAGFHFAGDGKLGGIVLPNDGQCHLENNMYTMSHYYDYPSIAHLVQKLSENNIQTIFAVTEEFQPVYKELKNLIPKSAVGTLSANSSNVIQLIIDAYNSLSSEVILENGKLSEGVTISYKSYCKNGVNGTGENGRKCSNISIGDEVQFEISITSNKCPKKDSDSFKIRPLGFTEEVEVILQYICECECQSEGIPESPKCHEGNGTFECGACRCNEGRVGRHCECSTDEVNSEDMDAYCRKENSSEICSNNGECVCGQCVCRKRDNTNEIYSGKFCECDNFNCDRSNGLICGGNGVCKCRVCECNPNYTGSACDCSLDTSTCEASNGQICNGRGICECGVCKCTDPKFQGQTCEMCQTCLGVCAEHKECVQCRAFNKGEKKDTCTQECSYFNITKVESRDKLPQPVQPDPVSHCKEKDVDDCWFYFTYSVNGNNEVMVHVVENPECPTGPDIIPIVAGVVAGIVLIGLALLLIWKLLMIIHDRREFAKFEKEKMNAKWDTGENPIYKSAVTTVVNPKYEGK
T1 sequence (P13612 34-1032): as the sequence (P13612 34-1032) above
T1 sequence (P05556 21-798): as the sequence (P05556 21-798) above

SMILES | IC50 [1] | IC50 [2]
O=C(Nc1ccc(C[C@H](NC(=O)[C@H]2COCN2C(=O)OCc2ccccc2)C(=O)O)cc1)c1c(Cl)cccc1Cl [Example 127, [R-(R*,S*)]-4-[[[1-Carboxy-2-[4-[(2,6-dichlorobenzoyl)amino]phenyl]ethyl]amino]-carbonyl]-3-oxazolidinecarboxylic Acid 3-(Phenylmethyl)ester] | 50 to 750 nM | ≤ 250 nM
C[C@@H](c1ccccc1)N1[C@H](C(=O)O)C[C@H]1C(=O)N[C@@H](Cc1ccc(NC(=O)c2c(Cl)cccc2Cl)cc1)C(=O)O [Example 129, [2S-[1(R*),2α,4β(R*)]]-4-[[[1-Carboxy-2-[4-[(2,6-dichlorobenzoyl)amino]phenyl]ethyl]-amino]carbonyl]-1-(1-phenylethyl)-2-azetidinecarboxylic Acid Dilithium Salt] | 50 to 750 nM | 250 to 1000 nM
C[C@H](c1ccccc1)N1[C@H](C(=O)O)C[C@H]1C(=O)N[C@@H](Cc1ccc(NC(=O)c2c(Cl)cccc2Cl)cc1)C(=O)O [Example 137, [2S-[1(S*),2α,4β(R*)]]-4-[[[1-Carboxy-2-[4-[(2,6-dichlorobenzoyl)amino]phenyl]ethyl]-amino]carbonyl]-1-(1-phenylethyl)-2-azetidinecarboxylic Acid] | 50 to 750 nM | 250 to 1000 nM
CCOC(=O)N1[C@@H](C(=O)O)C[C@@H]1C(=O)N[C@@H](Cc1ccc(NC(=O)c2c(Cl)cccc2Cl)cc1)C(=O)O [Example 141, [2R-(2α,4β(S*)]-4-[[[1-Carboxy-2-[4-[(2,6-dichlorobenzoyl)amino]phenyl]ethyl]-amino]-carbonyl]-1,2-azetidinedicarboxylic Acid 1-Ethyl Ester] | 50 to 750 nM | ≥ 1000 nM
CC(C)(C)OC(=O)N1CC[C@H]1C(=O)N[C@@H](Cc1ccc(NC(=O)c2c(Cl)cccc2Cl)cc1)C(=O)O [Example 143, [2S-(R*,R*)]-2-[[[1-Carboxy-2-[4-[(2,6-dichlorobenzoyl)amino]phenyl]ethyl]amino]-carbonyl]-1-azetidinecarboxylic Acid 1-(1,1-Dimethylethyl)ester] | 50 to 750 nM | ≥ 1000 nM
O=C(Nc1ccc(C[C@H](NC(=O)[C@@H]2CCN2)C(=O)O)cc1)c1c(Cl)cccc1Cl [Example 144, N-[[(2S)-2-Azetidinyl]carbonyl]-4-[(2,6-dichlorobenzoyl)amino]-L-phenylalanine Trifluoroacetic acid Salt] | 50 to 750 nM | ≥ 1000 nM
CC(C)(C)OC(=O)N1CC(C(=O)N[C@@H](Cc2ccc(NC(=O)c3c(Cl)cccc3Cl)cc2)C(=O)O)C1 [Example 146] | ≥ 750 nM | ≥ 1000 nM
O=C(Nc1ccc(C[C@H](NC(=O)C2CNC2)C(=O)O)cc1)c1c(Cl)cccc1Cl [Example 147, N-[[3-Azetidinyl]carbonyl]-4-[(2,6-dichlorobenzoyl)amino]-L-phenylalanine, Trifluoroacetic Acid Salt] | ≥ 750 nM | ≥ 1000 nM
CCOC(=O)N1CSC[C@@H]1C(=O)N[C@@H](Cc1ccc(NC(=O)c2c(Cl)cccc2Cl)cc1)C(=O)OCc1ccncc1 [Example 154, [S-(R*,R*) 4-[[[1-[4-[(2,6-Dichlorobenzoyl)amino]phenyl]methyl]-2-[(4-pyridinyl)methoxy]-2-oxoethyl]amino]carbonyl]-3-thiazolidinecarboxylic Acid 3-Ethyl Ester] | ≤ 50 nM | 250 to 1000 nM
O=C(O)CCC(=O)N1CCCCC1C(=O)N[C@@H](Cc1ccc(NC(=O)c2c(Cl)cccc2Cl)cc1)C(=O)O (stereo partly drawn) [Example 167] | 50 to 750 nM | 250 to 1000 nM
CN1C(=O)CC(C(=O)N[C@@H](Cc2ccc(NC(=O)c3c(Cl)cccc3Cl)cc2)C(=O)O)C1c1ccc2c(c1)OCO2 (stereo partly drawn) [Example 171, N-[[2-(1,3-Benzodioxol-5-yl)-1-methyl-5-oxo-3-pyrrolidinyl]carbonyl]-4-[(2,6-dichlorobenzoyl)amino]-L-phenylalanine] | 50 to 750 nM | ≥ 1000 nM
O=C(O)c1cncc(C(=O)N2CCCC[C@H]2C(=O)N[C@@H](Cc2ccc(NC(=O)c3c(Cl)cccc3Cl)cc2)C(=O)O)c1 [Example 172, 5-[[(2S)-2-[[[(1S)-1-Carboxy-2-[4-[(2,6-dichlorobenzoyl)amino]phenyl]ethyl]amino]carbonyl]-1-piperidinyl]carbonyl]-3-pyridinecarboxylic Acid] | ≤ 50 nM | ≤ 250 nM
COCCC(=O)N1CCCC(C(=O)N[C@@H](Cc2ccc(NC(=O)c3c(Cl)cccc3Cl)cc2)C(=O)O)C1 (stereo partly drawn) [Example 173, 4-[(2,6-Dichlorobenzoyl)amino]-N-[[1-(3-methoxy-1-oxopropyl)-3-piperidinyl]carbonyl]-L-phenylalanine] | 50 to 750 nM | ≤ 250 nM
O=C(O)/C=C/C(=O)N1CCCC[C@H]1C(=O)N[C@@H](Cc1ccc(NC(=O)c2c(Cl)cccc2Cl)cc1)C(=O)O [Example 176] | 50 to 750 nM | ≥ 1000 nM
COCCC(=O)N1CCCC[C@H]1C(=O)N[C@@H](Cc1ccc(NC(=O)c2c(Cl)cccc2Cl)cc1)C(=O)O [Example 177] | ≤ 50 nM | ≥ 1000 nM
O=C(Nc1ccc(C[C@H](NC(=O)[C@@H]2CCCCN2C(=O)C2CCCC(C(=O)O)C2)C(=O)O)cc1)c1c(Cl)cccc1Cl (stereo partly drawn) [Example 178] | ≤ 50 nM | ≥ 1000 nM
O=C(O)c1ccccc1C(=O)N1CCCC[C@H]1C(=O)N[C@@H](Cc1ccc(NC(=O)c2c(Cl)cccc2Cl)cc1)C(=O)O [Example 181] | 50 to 750 nM | ≥ 1000 nM
O=C(O)c1cccc(C(=O)N2CCCC[C@H]2C(=O)N[C@@H](Cc2ccc(NC(=O)c3c(Cl)cccc3Cl)cc2)C(=O)O)c1 [Example 182] | 50 to 750 nM | 250 to 1000 nM
O=C(Nc1ccc(C[C@H](NC(=O)[C@@H]2CCCCN2C(=O)c2cccnc2)C(=O)O)cc1)c1c(Cl)cccc1Cl [Example 185] | ≤ 50 nM | ≤ 250 nM
O=C(O)c1cccc(C(=O)N2CCCC[C@H]2C(=O)N[C@@H](Cc2ccc(NC(=O)c3c(Cl)cccc3Cl)cc2)C(=O)O)n1 [Example 186] | ≤ 50 nM | ≤ 250 nM
O=C(O)c1ccc(C(=O)N2CCCC[C@H]2C(=O)N[C@@H](Cc2ccc(NC(=O)c3c(Cl)cccc3Cl)cc2)C(=O)O)nc1 [Example 187] | 50 to 750 nM | ≥ 1000 nM
O=C(Nc1ccc(C[C@H](NC(=O)[C@@H]2CCCCN2C(=O)c2cc(O)c3ccccc3n2)C(=O)O)cc1)c1c(Cl)cccc1Cl [Example 188] | 50 to 750 nM | ≥ 1000 nM
O=C(O)c1cc(C(=O)N2CCCC[C@H]2C(=O)N[C@@H](Cc2ccc(NC(=O)c3c(Cl)cccc3Cl)cc2)C(=O)O)n[nH]1 [Example 189] | 50 to 750 nM | ≥ 1000 nM
O=C(Nc1ccc(C[C@H](NC(=O)[C@@H]2CCCCN2C(=O)C2NC(C(=O)O)CS2)C(=O)O)cc1)c1c(Cl)cccc1Cl (stereo partly drawn) [Example 190] | 50 to 750 nM | 250 to 1000 nM
O=C(Nc1ccc(C[C@H](NC(=O)[C@@H]2CCCCN2C(=O)c2ccc([N+](=O)[O-])o2)C(=O)O)cc1)c1c(Cl)cccc1Cl [Example 191] | 50 to 750 nM | ≥ 1000 nM
O=C(Nc1ccc(C[C@H](NC(=O)[C@@H]2CCCCN2C(=O)C2CCCO2)C(=O)O)cc1)c1c(Cl)cccc1Cl (stereo partly drawn) [Example 192] | ≤ 50 nM | ≤ 250 nM
O=C(Nc1ccc(C[C@H](NC(=O)[C@@H]2CCCCN2C(=O)C2CCOC2)C(=O)O)cc1)c1c(Cl)cccc1Cl (stereo partly drawn) [Example 193] | 50 to 750 nM | ≤ 250 nM
